Data as given in US12636260B2, “Application of α-asarone in preparation of medicine for preventing or treating hemorrhagic stroke” (CHENGDU XINRUI TAIKANG TECHNOLOGY CO., LTD., priority 2021, dated 2026).

Tests used:
SAH rats [1] = assay: Morris water maze and brain tissue atrophy of SAH rats in recovery phase; type: in vivo, rat
Protocol: Morris water maze was used to evaluate the long-term spatial perception and memory ability of rats in each group, and was performed after the survival observation, i.e., 15 to 19 days after SAH. The water maze was a circular pool with a diameter of 150 cm and a depth of 60 cm. Before the experiment, warm water (24±2)° C. was filled to a depth of 30 cm and colored black with ink. The pool was equally divided into four quadrants, and different signs were pasted on the walls of different quadrants to indicate the difference. A transparent platform with a diameter of 10 cm and a height of 28 cm was placed in the center of one quadrant, and was 2 cm beneath the water. Rats were released from the designated quadrant according to the experimental guidelines. On day 1 to 4, rats were successively released into water from four corresponding quadrants with a 10-minute interval. If the rat found the platform within 60 seconds, it was allowed to remain there for 10 seconds; if not, it was guided to the platform with a rod and allowed to stand there for 10 seconds. On day 5, the platform was removed and the rats were allowed to swim freely for 60 seconds. The escape latency, swimming speed and dwelling time on the target quadrant were recorded using a computerized tracking system (Noldus Ethovision, Tacoma, WA, USA).

SAH rats [2] = assay: Brain water content and blood-brain barrier permeability (Evans blue), SAH rats; type: in vivo, rat; conditions: 24 hours after operation, group M, medium-dose intravenous, vs model group
Protocol: (§1) After completing the evaluation of 24-hour short-term neurological function, 4% Evans blue solution (2.5 mL/kg) was injected into the right caudal vein of the rats. After circulated for 1 hour, the rats were deeply anesthetized and transcardinally perfused with 100 mL of normal saline to collect the rats' brain. The whole brain was divided into four groups: left hemisphere (LH), right hemisphere (RH), cerebellum (Cb) and brainstem (BS). The left and right hemispheres were coronally divided into two parts, one part was immediately weighed (wet weight) with a balance with an accuracy of 0.1 mg, dried in an oven at 105° C. for 24 hours and weighed again (dry weight). The brain water content was calculated as [(wet weight−dry weight)/wet weight]×100%. The other part of the brain tissue was weighed (wet weight) and emerged into 10 times the volume of pure formamide, incubated at 60° C. for 48 hours, centrifuged at 25° C. for 30 min (10,000 rpm/min). The Evans blue in the supernatant was measured at 622 nm by a UV spectrophotometry, and calculated with a standard curve for quantification. The amount of Evans blue was expressed as μg/g of brain tissue (wet weight).

ICH rats [3] = assay: Brain water content and blood-brain barrier permeability (Evans blue), ICH rats; type: in vivo, rat; conditions: 24 hours after operation, group M, medium-dose intravenous, vs model group
Protocol: as §1

ICH rats [4] = assay: Glutamate and GABA content in brain tissue, ICH rats; type: in vivo, rat; conditions: 12 to 24 hours after operation, group M
Protocol: The rats were deeply anesthetized, and decapitated to collect the brain at 12-24 hours after modeling. Then about 60 to 120 mg of brain cortex on the hemorrhagic side were weighed, homogenized with 10 times the volume of ice-cold centrifuge buffer for biochemical detection, homogenized for 10 min in an ice bath, and centrifuged at 4° C. for 30 minutes (14,000 rpm/min). The contents of glutamate and GABA in the supernatant were detected according to the instructions of glutamate content detection kit and rat GABA Elisa kit.

SAH rats [5] = assay: Ca2+ level and mitochondrial membrane potential in brain tissue, SAH rats; type: in vivo, rat; conditions: 12-24 hours after operation, group M
Protocol: (§2) The rats were decapitated to collect the brain 12 to 24 hours after modeling. The brain cortex around the hematoma was immediately taken to prepare a single cell suspension by enzymatic digestion (papain: 2 mg/mL; DNAase I: 0.05 mg/mL), with the cell concentration was adjusted to 5×10^6 cells/mL. 100 μL of cell suspension was incubated with 5 μM Fluo-3/AM dye solution or 10 μM Rhodamine 123 dye solution at 37° C. for 45 min. Then the cells were washed twice with PBS (phosphate buffer, pH=7.2-7.4), resuspended with 0.5 mL of PBS, and detected by a flow cytometry at the excitation wavelength of 506 nm and the emission wavelength of 526 nm. The mean fluorescence intensity of Fluo-3 and Rh123 in 10,000 cells was analyzed by FlowJo software.

ICH rats [6] = assay: Ca2+ level and mitochondrial membrane potential in brain tissue, ICH rats; type: in vivo, rat; conditions: 12-24 hours after operation, group M
Protocol: as §2

mouse bone marrow cells = assay: Mouse bone marrow micronucleus test by flow cytometry; type: in vivo; conditions: mice; for MNPCE / PCE / fMNPCE (‰): 4 days
Protocol: Experimental grouping and administration: The animals were randomly divided into five groups with 10 […] in each group: blank control group (blank group, administrated blank emulsion with the same volume as the high-dose group of α-asarone), cyclophosphamide group (CTX group, 40 mg/kg), low dose of α-asarone emulsion injection group (prepared by preparation embodiment 7, 100 mg/kg/day, ASA-L group), medium dose of α-asarone emulsion injection group (prepared by preparation embodiment 7, 150 mg/kg/day, ASA-M group), and high dose of α-asarone emulsion injection group (prepared from preparation embodiment 7, 200 mg/kg/day, ASA-H group).
All drugs were administrated through the tail vein for continuous 4 days except for the single injection of the positive control drug cyclophosphamide (CTX) 24 hours before sampling. After 24 hours of the last administration, the mice were sacrificed to separate both femurs. The femoral bone marrow cells were washed with PBS and filtered by 300 mesh nylon cell sieves to prepare a single-cell suspension. The suspension was centrifuged at 1650 rpm for 5 min, and the cell concentration was adjusted to 5×10^6 cells/mL by PBS resuspension. For each sample, 100 μL of the cell suspension was incubated with 400 μL of the PIPES-PI solution (10 mL of PIPES solution (concentration of 3.5 mg/mL)+0.5 mg PI+0.01 mL Triton X-100 (concentration of 0.1%)), gently blown and mixed, at 4° C. in the dark for 30 min and detected by a flow cytometry. […] The higher the value, the stronger the genotoxicity.

ICH rats [7] = assay: Short-term neurological function of ICH rats (Garcia score, beam balance test); type: in vivo, rat; conditions: ICH model, 24 hours after modeling; group O, α-asarone emulsion oral administration 40 mg/kg
[8] = ASA-H group, α-asarone emulsion injection 200 mg/kg/day tail vein
[9] = ASA-L group, α-asarone emulsion injection 100 mg/kg/day tail vein
[10] = ASA-M group, α-asarone emulsion injection 150 mg/kg/day tail vein

C/C=C/c1cc(OC)c(OC)cc1OC [α-asarone, trans-2,4,5-trimethoxy-1-propenylbenzene]
escape latency during the training period (SAH rats [1]; Morris water maze, 15 to 19 days after SAH, group M, vs group S): significantly decreased
swimming speed (SAH rats [1]; Morris water maze, group M vs group S (P<0.05)): significantly faster
time in the target quadrant, spatial probe test (SAH rats [1]; Morris water maze, group M, vs group S): notably prolonged
brain atrophy (SAH rats [1]; SAH rats after long-term administration, group M): significantly rescued
Evans blue content (SAH rats [2]): significantly reduce
brain water content (SAH rats [2]): significantly reduce
Evans blue content (ICH rats [3]): significantly reduce
brain water content (ICH rats [3]): significantly reduce
GABA content in the hemorrhagic brain tissue (ICH rats [4]): significantly reduce
glutamate content in the hemorrhagic brain tissue (ICH rats [4]): significantly reduce
calcium level in brain tissue (SAH rats [5]; Fluo-3 flow cytometry): significantly reduce
mitochondrial membrane potential in brain tissue (SAH rats [5]; Rhodamine 123 flow cytometry): stabilize
calcium level in brain tissue (ICH rats [6]; Fluo-3 flow cytometry): significantly reduce
mitochondrial membrane potential in brain tissue (ICH rats [6]; Rhodamine 123 flow cytometry): stabilize
MNPCE (mouse bone marrow cells; [8]): 0.55 ± 0.43
PCE (mouse bone marrow cells; [8]): 41.39 ± 6.11
fMNPCE (‰) (mouse bone marrow cells; [8]): 12.60 ± 8.53 ‰
MNPCE (mouse bone marrow cells; [9]): 0.39 ± 0.11
PCE (mouse bone marrow cells; [9]): 40.58 ± 9.17
fMNPCE (‰) (mouse bone marrow cells; [9]): 10.10 ± 2.75 ‰
MNPCE (mouse bone marrow cells; [10]): 0.47 ± 0.19
PCE (mouse bone marrow cells; [10]): 38.37 ± 3.18
fMNPCE (‰) (mouse bone marrow cells; [10]): 12.34 ± 5.52 ‰
micronucleus rate compared to the blank emulsion group (mouse bone marrow cells; different doses of α-asarone emulsion injection (100, 150, 200 mg/kg/day)): no significant difference
changes in the micronucleus rate of mouse bone marrow cells (mouse bone marrow cells; intravenous dose of up to 200 mg/kg α-asarone emulsion injection): no significant changes
Beam balance score (ICH rats [7]): 3.41
Garcia score (ICH rats [7]): 10.17
